Assay results: ChEMBL document CHEMBL1135238, “Antibody-catalyzed cleavage of the D-Ala-D-Lac depsipeptide: an immunological approach to the problem of vancomycin resistance” (Bioorg Med Chem Lett, 2002)
Square brackets hold non-standard residues; d marks the D form. Peptide text beside a SMILES is read from it.

What was measured:
[1] = inhibitory activity of compound using pentapeptide cell-wall peptidoglycan (PG) substrates
[2] = Kcat value was determined
[3] = Ratio of Kcat to Km was determined
[4] = Ratio of Kcat to Kuncat was determined
[5] = Km value was determined

Row | Structure (SMILES) | Ki [1] [mM] | k cat [2] [s⁻¹] | Ratio [3] | Ratio [4] | Km [5] [µM]
1 | CC(=O)NCCCC[C@H](NC(C)=O)C(=O)N[C@H](C)C(=O)N[C@H](C)C(=O)O (Ac-Lys(Ac)-[dA]-[dA]-OH) | 13 | – | – | – | –
2 | CC(=O)NCCCC[C@H](NC(=O)CCNC(=O)CCCC(=O)ON1C(=O)CCC1=O)C(=O)N[C@H](C)P(=O)(O)O[C@H](C)C(=O)O | < 0.16 | 3.33e-05 | 0.921 | 530 | 2170
